For orientation: AC50 means the midpoint of the concentration-response curve, whichever way the signal moves.

The target of the test is T. gondii ME49Luc in IFN-y HeLa, luciferase, 72 h. Description: T. gondii growth inhibition with IFN-gamma, dose response, cell-based, ME49Luc, HeLa, luciferase, 72 h (AID 1259418).

Where “and” joins values, the source holds several entries; their conditions need not be identical. Equal values may be shown once. Results filed as inconclusive are left out. Calls of active or inactive are those of the source.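 How the source made its calls: active means fitted half-maximal concentration of signal decrease at or below twice the sample's top tested concentration; inconclusive means flat curve between -70 and -30 percent, or poor fit; inactive means flat within 30 percent, signal rise, or potency above limit.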

With `O=S(=O)(c1ccccc1)N1CCCCN2[C@H](CO)[C@@H](c3ccc(C#CC4CCCC4)cc3)[C@@H]2C1`, the AC50 was 13.4 µM.
As for `CN(C)c1nc(N2CCCC2)nc2c1CCN(Cc1ccoc1)CC2`, the figure is 16 µM; as for `OC[C@H]1Nc2ccc(-c3cccc(F)c3)cc2[C@@H]2[C@H]1CCN2Cc1ccc(F)cc1`, 20 µM; as for `COc1ccc(-c2nc(N(C)Cc3ccco3)c3ccccc3n2)cc1`, 17 µM.
With `O=C(NCCCN1CCCC1)C1CCN(Cc2cc3ccccc3n2Cc2ccccc2)CC1`, the AC50 is 23 µM.
For the molecule `Cc1cccc(CNC2=NCCNC23CCN(S(=O)(=O)c2ccc(CC(C)C)cc2)CC3)c1`, the AC50 is 8.2 µM.
For `Cc1ccc(-c2nc(CN3CCN(C(=O)Nc4cccc(Cl)c4)CC3)c(C)o2)cc1` the value was > 39 µM (inactive); for `COc1ccccc1NC(=O)N1C[C@H](O)COC[C@@H]2O[C@@H](CC(=O)N3CCC(Cc4ccccc4)CC3)CC[C@H]21`, 22.9 µM and > 39 µM (inactive).
In the case of `Cc1ccc(C)c(S(=O)(=O)N2CCC3(CC2)NCCN=C3NCc2ccccc2F)c1`, the AC50 was 28.5 µM.
In the case of `Cc1ccc2c(c1C)-n1cccc1C1(CCN(C(=O)c3ccccc3F)CC1)N2`, the AC50 is > 39 µM (inactive).
Regarding `CCCCC(=O)N1CCC2(CC1)Nc1ccc(Cl)cc1-n1cccc12`, the AC50 was > 39 µM (inactive).
For the molecule `N#Cc1cccc(-c2ccc3c(c2)[C@@H]2[C@@H](CCN2S(=O)(=O)c2ccc(F)cc2)[C@@H](CO)N3)c1`, the AC50 was 15.7 µM.
`COc1cccc(-c2nc(C)c(-c3ccc(SCc4ccc(Cl)cc4)nn3)s2)c1`: the AC50 was 8.76 µM.
For `COc1cccc(-c2ccc([C@H]3[C@H]4CN(C(=O)Cc5ccncc5)CCCCN4[C@H]3CO)cc2)c1`, the AC50 was > 39 µM (inactive).
For `O=C(CCC1N=C2c3ccccc3N=C(SCc3cccc(F)c3)N2C1=O)NCc1cccs1` (centres undefined), the AC50 is 20.3 µM.
As for `COc1cccc(NC(=O)N2CC(=O)N3[C@H](CO)[C@H](c4ccc(C#CCC5CCCC5)cc4)[C@@H]3C2)c1`, the figure is 17.6 µM.
As for `N#C[C@@H]1[C@H](c2ccc(-c3cccc(F)c3)cc2)[C@H](CO)N1C(=O)NC1CCCC1`, the AC50 is 15.1 µM and 4.56 µM.
Regarding `O=C(c1cccc2[nH]ccc12)N1CCCC1c1nc(-c2cccc(Cl)c2)no1` (centres undefined), the AC50 was 23.3 µM.
As for `C/C=C/c1ccc([C@H]2[C@H](CO)N3CCCCN(S(=O)(=O)c4ccc(OC)cc4)C[C@@H]23)cc1`, the figure is > 39 µM (inactive); as for `CC(C)CC#Cc1ccc([C@@H]2[C@@H](CO)N3CCCCN(C(=O)Nc4ccccc4)C[C@H]23)cc1`, 13.5 µM and 9.09 µM; as for `Cc1nc2ccccn2c1CN(C)Cc1cnn(-c2ccccc2)c1`, > 39 µM (inactive).
As for `Cc1cccc(OCC(=O)N2CCC3(CC2)Nc2ccc(Cl)cc2-n2cccc23)c1`, the AC50 is 8.26 µM and 14.9 µM.
For `CCc1ccc(S(=O)(=O)N2CCC3(CC2)NCCN=C3NCc2cc(F)cc(F)c2)cc1` the value was 6.6 µM; for `O=C(c1ccc(-n2nc(C(F)(F)F)c3c2CCCC3)cc1)N1CCC2(CC1)OCCO2`, 1.4 µM.
Consider `COc1ccc(S(=O)(=O)N2CCC(C(=O)NCCc3csc(-c4ccccc4)n3)CC2)cc1`, for which the AC50 is > 20 µM (inactive).
With `O=C1CCc2cc(S(=O)(=O)N3CCc4ccccc43)cc3c2N1CCC3`, the AC50 is > 39 µM (inactive).
Consider `COc1ccc(-c2nc(NCC3CCN(CCc4ccc(F)cc4)CC3)c3ccccc3n2)cc1`, for which the AC50 was 12.2 µM.
Consider `O=C(CC1N=C2c3ccccc3N=C(SCc3ccc(F)cc3)N2C1=O)NCc1ccco1` (centres undefined), for which the AC50 was 20.5 µM.
Regarding `Cc1ccc2[nH]c(C(=O)NCc3cccnc3)c(NC(=O)c3ccc(F)cc3)c2c1`, the AC50 was 27.6 µM.
Turning to `O=C(Cc1ccccc1)N1CC(=O)N2[C@H](CO)[C@@H](c3ccc(-c4ccc(F)cc4)cc3)[C@H]2C1`, the AC50 was 22.2 µM.
On to `Clc1ccc(-c2nc(NCc3ccc4c(c3)OCO4)c3ccccc3n2)cc1`, for which the AC50 was 11.3 µM.
Consider `O=S(=O)(c1ccc(Cl)s1)N1CCC2(CC1)NCCN=C2NCc1ccccc1F`, for which the AC50 is 17.9 µM.
As for `CCCCNC(=O)CC1N=C2c3ccccc3N=C(SCc3ccc(C)cc3)N2C1=O` (centres undefined), the figure is 10.4 µM; as for `Cc1ccc(-c2coc(-c3ccc(NS(=O)(=O)c4ccc(Br)cc4)cc3)n2)c(C)c1`, 27.9 µM; as for `CN(C[C@H]1N[C@@H](CO)[C@@H]1c1ccc(C2=CCCC2)cc1)C(=O)c1cccc(F)c1`, 15.2 µM and 3.49 µM.
On to `Cc1ccc(-c2nc(CN3CCN(C(=O)Nc4ccc(C)c(C)c4)CC3)c(C)o2)cc1`, for which the AC50 is 23.2 µM.
On to `O=C(Cc1ccccn1)N1CC(=O)N2[C@H](CO)[C@H](c3ccc(C#CCC4CCCC4)cc3)[C@H]2C1`, for which the AC50 is 19.4 µM and 8.78 µM.
As for `COc1cc2c(cc1O)CC[C@@H]1[C@@H]2CC[C@]2(C)[C@@H](O)CC[C@@H]12`, the figure is 1.99 µM and 4.21 µM.
Turning to `Cc1ccc(CSC2=Nc3ccccc3C3=NC(CCC(=O)NCc4cccs4)C(=O)N23)cc1` (centres undefined), the AC50 is 17.5 µM.
On to `O=C(Nc1ccc(-c2nc(-c3ccccc3)co2)cc1)c1cccc(F)c1`, for which the AC50 was 30.6 µM.
As to `CN1C(=O)CCc2cc(NC(=O)C(F)(F)F)ccc21`, the AC50 is 17.1 µM.
For `COCC1CN(C(=O)c2ccccc2F)Cc2cnn(CC3CC3)c21` (centres undefined) the value was 35.8 µM; for `O=C(Cc1ccncc1)N1CCCCN2[C@H](CO)[C@H](c3ccc(C#Cc4ccccc4F)cc3)[C@H]2C1`, 20 µM; for `COc1cccc(NC(=O)N2CC(=O)N3[C@H](CO)[C@H](c4ccc(C#CCC5CCCC5)cc4)[C@H]3C2)c1`, 12.8 µM and 10.5 µM.
Take `CCOc1ccc(CC(=O)N2CCC3(CC2)Nc2cc(F)ccc2-n2cccc23)cc1OCC`: the AC50 is > 39 µM (inactive).
For `O=C(CC1N=C2c3ccccc3N=C(SCc3ccc(Cl)cc3)N2C1=O)NCCc1ccccc1` (centres undefined) the value was 20.4 µM; for `Cc1nc(-c2cccc(-c3noc(C(=O)NCCCN4CCC(C)CC4)n3)c2)cs1`, > 39 µM (inactive); for `COc1ccc(-c2ccc(C3[C@@H]4CN(C(=O)c5ccc(F)cc5)C[C@H]3N4)cc2)cc1` (some centres undefined), 15.8 µM and 11.3 µM.
For `Cc1cc(C(C)(C)CC(C)(C)C)ccc1OCCOCC[N+](C)(C)Cc1ccccc1` the value was 14.9 µM.
For `Cc1ccc(S(=O)(=O)N2CCC3(CC2)NCCN=C3NCc2ccc(C(F)(F)F)cc2)c(C)c1` the value was 9.08 µM.
For the molecule `OC[C@@H]1Nc2ccc(-c3cccc(F)c3)cc2[C@@H]2[C@H]1CCN2Cc1ccc(F)cc1`, the AC50 was 18.5 µM.
For `CCc1nc(OCC(=O)NCc2ccc(SC)cc2)c2ccccc2n1` the value was > 39 µM (inactive).
For `COc1cccc(-c2nc3c(s2)CN(S(=O)(=O)c2cccc(F)c2)CC3)c1` the value was 11.3 µM; for `CCc1nc(OCC(=O)Nc2ccc(C)c(F)c2)c2ccccc2n1`, 26.6 µM; for `COc1cccc(-c2nc3c(s2)CN(S(=O)(=O)c2ccc(C)cc2)CC3)c1`, 25.9 µM.
As for `CCOc1ccccc1-c1nc(CN(c2ccccc2OC)S(=O)(=O)c2ccccc2)c(C)o1`, the figure is 7.68 µM; as for `Fc1ccc(Nc2nc(SCc3ccccc3Cl)nc3ccccc23)cc1F`, 11.3 µM; as for `Cc1ccc(-c2nc(Cn3nnc(-c4nc(-c5cccs5)no4)c3C)c(C)o2)cc1`, 3.2 µM.
In the case of `COc1ccccc1C(=O)Nc1ccc(-c2nc(-c3ccc(C)cc3)co2)cc1`, the AC50 is 19.1 µM.
As for `O=C(NCc1ccccc1)C1CC2(CO1)CN(C(=O)c1ccc(F)cc1)c1ccccc12` (centres undefined), the figure is > 39 µM (inactive); as for `C/C=C/c1ccc([C@@H]2[C@@H](CO)N3CCCCN(CCC(F)(F)F)C[C@@H]23)cc1`, 17.4 µM; as for `CCc1cnc(N2[C@H](C#N)[C@@H](c3ccc(C#Cc4ccccc4F)cc3)[C@H]2CO)s1`, 20.5 µM and 6.21 µM.
For `CCS(=O)(=O)N1CCc2nc(-c3cccc(F)c3)nc(NC3CC3)c2C1`, the AC50 is 31.4 µM.
As for `COc1ccc(S(=O)(=O)N2CCCCN3[C@H](C2)[C@@H](c2ccc(C#CCC(C)C)cc2)[C@@H]3CO)cc1`, the figure is 12.3 µM; as for `COc1ccc(-c2ccc([C@H]3[C@H]4CN(Cc5ccccc5)CC(=O)N4[C@H]3CO)cc2)cc1`, 21 µM.
For `CC(C)c1ccc(S(=O)(=O)N2CCC(C(=O)NCCc3csc(-c4ccccc4)n3)CC2)cc1` the value was 12.7 µM; for `CCc1ccc(S(=O)(=O)N2CCC3(CC2)NCCN=C3NCc2ccc(C)cc2)cc1`, 8.88 µM.
For `CCOc1ccc(-c2nc(CN(c3ccc(OC)cc3)S(=O)(=O)c3cccs3)c(C)o2)cc1`, the AC50 was 8.01 µM and 17.4 µM.
`COc1cccc(CN2C[C@@H]3N[C@H](C2)C3c2ccc(-c3ccccc3C)cc2)c1` (some centres undefined): the AC50 is 19 µM and 12.1 µM.
Turning to `COCCCNc1ncnc2c1cnn2-c1cccc(C)c1`, the AC50 was 14.6 µM.
For `CC(C)(Cc1ccc2ccccc2c1)NC[C@@H](O)COc1cccc(Cl)c1C#N`, the AC50 was 13.3 µM.
As for `CCc1ccc(S(=O)(=O)N2CCC3(CC2)NCCN=C3NC2CCCCCC2)cc1`, the figure is 5.05 µM; as for `COc1ccc(-c2nc(NC3CCCC3)c3ccccc3n2)cc1`, 35.8 µM; as for `O=C(O)CCc1nc2sc3c(c2c(=O)[nH]1)CCCC3`, > 20 µM (inactive).
As for `COc1ccc(-c2nc(CN(c3ccccc3OC)S(=O)(=O)c3ccccc3)c(C)o2)cc1`, the figure is 7.78 µM.
As for `O=C1CNC[C@@H]2[C@@H](c3ccc(C#Cc4cccnc4)cc3)[C@@H](CO)N12`, the figure is 14.1 µM and 18.2 µM; as for `Cc1oc(-c2cccc(Cl)c2)nc1CN(c1ccccc1)S(=O)(=O)c1ccccc1`, 6.63 µM.
`O=C(Cc1cccnc1)N1CC(=O)N2[C@H](CO)[C@@H](c3ccc(C#CC4CCCCC4)cc3)[C@@H]2C1`: the AC50 was 8.96 µM and 14.8 µM.
As for `O=C1CCc2cc(S(=O)(=O)NC(c3ccccc3)c3ccccc3)cc3c2N1CCC3`, the figure is 12.8 µM.
For `CCc1ccc(S(=O)(=O)N2CCC3(CC2)NCCN=C3NCc2cccc(F)c2)cc1` the value was 16.3 µM; for `Fc1ccccc1CSc1nc(NCc2ccccc2)c2ccccc2n1`, 17.9 µM; for `N#Cc1ccc(-c2ccc(C3[C@@H]4CN(S(=O)(=O)c5ccc(F)cc5)C[C@H]3N4)cc2)cc1` (some centres undefined), 12.1 µM and 13.8 µM.
For `Cc1ccccc1S(=O)(=O)N1C[C@@H]2N[C@H](C1)C2c1ccc(-c2cccc(C#N)c2)cc1` (some centres undefined) the value was 15.6 µM and 2.57 µM and 18.7 µM; for `CN(C)C(=O)COCc1cncc2c1CCN(c1ccccn1)C2`, 6.26 µM.
